Measured values taken from PubChem BioAssay (NCI).
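Each compound was tested at five concentrations against cells in 96-well plates for 48 hours. TGI denotes the concentration required for complete inhibition of growth.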

Experiments:
Assay in all cases: NCI-60 cell line screen, 48 h
[1] = system: SF-295 CNS
[2] = system: MDA-N
[3] = system: HOP-62 NSCLC
[4] = system: SK-OV-3 ovarian
[5] = system: UACC-257 melanoma
[6] = system: PC-3 prostate
[7] = system: HCC-2998 colon
[8] = system: SW-620 colon
[9] = system: SF-268 CNS
[10] = system: SN12C renal
[11] = system: U251 CNS
[12] = system: SNB-75 CNS
[13] = system: CCRF-CEM leukemia
[14] = system: KM12 colon
[15] = system: HCT-15 colon
[16] = system: SF-539 CNS
[17] = system: LOX IMVI melanoma
[18] = system: MCF7 breast
[19] = system: SK-MEL-2 melanoma
[20] = system: NCI-H522 lung
[21] = system: 786-0 renal
[22] = system: T-47D breast
[23] = system: RXF 393 renal
[24] = system: BT-549 breast
[25] = system: SK-MEL-28 melanoma
[26] = system: A498 renal
[27] = system: K-562 leukemia
[28] = system: UACC-62 melanoma
[29] = system: MDA-MB-231 breast
[30] = system: SNB-19 CNS
[31] = system: CAKI-1 renal
[32] = system: HL-60(TB) leukemia
[33] = system: EKVX NSCLC
[34] = system: RPMI-8226 leukemia
[35] = system: SK-MEL-5 melanoma
[36] = system: HCT-116 colon
[37] = system: NCI/ADR-RES ovarian
[38] = system: DU-145 prostate
[39] = system: IGROV1 ovarian
[40] = system: OVCAR-4 ovarian
[41] = system: HT29 colon
[42] = system: NCI-H226 lung
[43] = system: ACHN renal
[44] = system: NCI-H460 lung
[45] = system: TK-10 renal
[46] = system: M14 melanoma
[47] = system: OVCAR-5 ovarian
[48] = system: MOLT-4 leukemia
[49] = system: HOP-92 NSCLC
[50] = system: COLO 205 colon
[51] = system: MDA-MB-435
[52] = system: NCI-H23 lung
[53] = system: HS 578T breast
[54] = system: OVCAR-8 ovarian
[55] = system: OVCAR-3 ovarian
[56] = system: UO-31 renal
[57] = system: A549 NSCLC

Compound: Cn1c(=O)c2c(nc3n(CC(O)CCl)c(=O)ccn23)n(C)c1=O (configuration not stated)
- TGI [1]: > 100 µM
- TGI [2]: > 100 µM
- TGI [3]: > 100 µM
- TGI [4]: > 100 µM
- TGI [5]: > 100 µM
- TGI [6]: > 100 µM
- TGI [7]: > 100 µM
- TGI [8]: > 100 µM
- TGI [9]: > 100 µM
- TGI [10]: > 100 µM
- TGI [11]: > 100 µM
- TGI [12]: > 100 µM
- TGI [13]: > 100 µM
- TGI [14]: > 100 µM
- TGI [15]: > 100 µM
- TGI [16]: > 100 µM
- TGI [17]: > 100 µM
- TGI [18]: > 100 µM
- TGI [19]: > 100 µM
- TGI [20]: > 100 µM
- TGI [21]: > 100 µM
- TGI [22]: > 100 µM
- TGI [23]: > 100 µM
- TGI [24]: > 100 µM
- TGI [25]: > 100 µM
- TGI [26]: > 100 µM
- TGI [27]: > 100 µM
- TGI [28]: > 100 µM
- TGI [29]: > 100 µM
- TGI [30]: > 100 µM
- TGI [31]: 66.2 µM
- TGI [32]: > 100 µM
- TGI [33]: > 100 µM
- TGI [34]: > 100 µM
- TGI [35]: > 100 µM
- TGI [36]: > 100 µM
- TGI [37]: > 100 µM
- TGI [38]: > 100 µM
- TGI [39]: > 100 µM
- TGI [40]: > 100 µM
- TGI [41]: > 100 µM
- TGI [42]: > 100 µM
- TGI [43]: > 100 µM
- TGI [44]: > 100 µM
- TGI [45]: > 100 µM
- TGI [46]: > 100 µM
- TGI [47]: > 100 µM
- TGI [48]: 92.1 µM
- TGI [49]: > 100 µM
- TGI [50]: > 100 µM
- TGI [51]: > 100 µM
- TGI [52]: > 100 µM
- TGI [53]: > 100 µM
- TGI [54]: > 100 µM
- TGI [55]: > 100 µM
- TGI [56]: > 100 µM
- TGI [57]: > 100 µM
